Assay results published in ChEMBL document CHEMBL3885861, “Open TG-GATES”.

Species on record: Rattus norvegicus
Experiment: Open TG-GATES - Regimen: Single
Type: toxicity, organism-based, Sprague-Dawley
Design: regimen Single, gender Male, age 6 weeks
Settings: in vivo, iv, route intravenous injection; for Bas / Eos / Fbg / Lym / MCH / MCHC / MCV / Mono / Neu / PT / Plat / RBC / Ret / WBC / APTT / Hb / Ht: tissue Blood; for KIDNEY_L / KIDNEY_R / KIDNEY_TOTAL: tissue Kidney; for LIVER: tissue Liver; for ALP / ALT / AST / BUN / CRE / DBIL / GLC / IP / K / PL / RALB / TBIL / TC / TG / TP / gamma-GTP / LDH / Na: tissue Plasma
[1] = 0 mg/kg, 3 h, dose level Control
[2] = 0 mg/kg, 6 h, dose level Control
[3] = 0 mg/kg, 9 h, dose level Control
[4] = 0 mg/kg, 24 h, dose level Control

## CARBOPLATIN
[1]
  TERMINAL_BW: 198.4 g
  Bas: 0%
  Eos: 0.4%
  Fbg: 277.4 mg/dL
  Lym: 80%
  MCH: 21.1 pg
  MCHC: 32.1%
  MCV: 65.9 fL
  Mono: 2.2%
  Neu: 16.2%
  PT: 16 s
  Plat: 125.4 x10_4/uL
  RBC: 633.2 x10_4/ul
  Ret: 6.4%
  WBC: 107.8 x10_2/uL
  KIDNEY_L: 0.9 g
  KIDNEY_R: 0.9 g
  KIDNEY_TOTAL: 1.8 g
  LIVER: 9.1 g
  ALP: 1848.6 IU/L
  ALT: 47 IU/L
  AST: 86.2 IU/L
  BUN: 13.6 mg/dL
  CRE: 0.2 mg/dL
  DBIL: 0 mg/dL
  GLC: 197.2 mg/dL
  IP: 8.3 mg/dL
  K: 3.9 meq/L
  PL: 127.8 mg/dL
  RALB: 3 g/dL
  TBIL: 0.012 mg/dL
  TC: 71.8 mg/dL
  TG: 43 mg/dL
  TP: 5.5 g/dL
  gamma-GTP: 1.2 IU/L
[2]
  TERMINAL_BW: 200.5 g
  APTT: 24.3 s
  Bas: 0%
  Eos: 0.8%
  Fbg: 274.2 mg/dL
  Lym: 80.8%
  MCV: 64 fL
  Mono: 2.6%
  Neu: 15.4%
  PT: 16.1 s
  Plat: 119.1 x10_4/uL
  RBC: 645.6 x10_4/ul
  Ret: 6.5%
  WBC: 98 x10_2/uL
  KIDNEY_L: 0.9 g
  KIDNEY_R: 0.9 g
  KIDNEY_TOTAL: 1.8 g
  LIVER: 8.5 g
  ALP: 1354.4 IU/L
  AST: 77 IU/L
  BUN: 11.4 mg/dL
  CRE: 0.2 mg/dL
  DBIL: 0 mg/dL
  GLC: 180.6 mg/dL
  IP: 9.3 mg/dL
  K: 4.4 meq/L
  LDH: 202.4 IU/L
  PL: 128 mg/dL
  RALB: 2.9 g/dL
  TBIL: 0.01 mg/dL
  TC: 74.2 mg/dL
  TG: 74.2 mg/dL
  TP: 5.3 g/dL
  gamma-GTP: 1.4 IU/L
[3]
  TERMINAL_BW: 195.2 g
  APTT: 24.6 s
  Bas: 0%
  Eos: 0.6%
  Fbg: 296.4 mg/dL
  Hb: 13 g/dL
  Lym: 77.2%
  MCHC: 31.9%
  MCV: 64.4 fL
  Mono: 2%
  Neu: 19.8%
  PT: 16 s
  Plat: 121.6 x10_4/uL
  RBC: 635.2 x10_4/ul
  Ret: 6.3%
  WBC: 80.5 x10_2/uL
  KIDNEY_L: 0.9 g
  KIDNEY_R: 0.9 g
  KIDNEY_TOTAL: 1.8 g
  LIVER: 8.2 g
  ALP: 1521.4 IU/L
  ALT: 38.8 IU/L
  AST: 75.2 IU/L
  CRE: 0.2 mg/dL
  DBIL: 0 mg/dL
  GLC: 182.2 mg/dL
  IP: 9.7 mg/dL
  K: 4.3 meq/L
  LDH: 155 IU/L
  Na: 140.4 meq/L
  PL: 123.6 mg/dL
  RALB: 2.9 g/dL
  TBIL: 0.008 mg/dL
  TC: 72.4 mg/dL
  TG: 57.2 mg/dL
  TP: 5.3 g/dL
  gamma-GTP: 1 IU/L
[4]
  TERMINAL_BW: 214.9 g
  APTT: 23.2 s
  Bas: 0%
  Eos: 1%
  Fbg: 280.2 mg/dL
  Lym: 82.8%
  MCHC: 32.1%
  MCV: 63 fL
  Mono: 2.4%
  PT: 16.6 s
  Plat: 124.1 x10_4/uL
  RBC: 648.4 x10_4/ul
  Ret: 5.2%
  WBC: 108.2 x10_2/uL
  KIDNEY_L: 1 g
  KIDNEY_R: 1 g
  KIDNEY_TOTAL: 2 g
  LIVER: 9.7 g
  ALP: 1592.8 IU/L
  ALT: 42.2 IU/L
  AST: 73 IU/L
  BUN: 16.6 mg/dL
  CRE: 0.2 mg/dL
  DBIL: 0 mg/dL
  GLC: 183 mg/dL
  IP: 7.2 mg/dL
  K: 4.5 meq/L
  LDH: 175 IU/L
  Na: 140.4 meq/L
  PL: 133.4 mg/dL
  RALB: 2.9 g/dL
  TBIL: 0.006 mg/dL
  TC: 69.6 mg/dL
  TG: 84.4 mg/dL
  TP: 5.4 g/dL
  gamma-GTP: 1.2 IU/L
10 mg/kg, 3 h, dose level Low
  TERMINAL_BW: 205.7 g
  Bas: 0%
  Eos: 1%
  Fbg: 269.2 mg/dL
  Hb: 12.9 g/dL
  Lym: 80.4%
  MCH: 21.1 pg
  MCHC: 32%
  MCV: 66 fL
  Mono: 2.4%
  PT: 15.4 s
  Plat: 126.7 x10_4/uL
  RBC: 612.6 x10_4/ul
  Ret: 6.2%
  WBC: 92.7 x10_2/uL
  KIDNEY_L: 1 g
  KIDNEY_R: 0.9 g
  KIDNEY_TOTAL: 1.9 g
  LIVER: 9.7 g
  ALP: 1526 IU/L
  ALT: 43.6 IU/L
  AST: 85.4 IU/L
  CRE: 0.2 mg/dL
  DBIL: 0.002 mg/dL
  GLC: 185 mg/dL
  IP: 7.9 mg/dL
  K: 3.9 meq/L
  LDH: 228.2 IU/L
  PL: 124.8 mg/dL
  RALB: 2.9 g/dL
  TBIL: 0.016 mg/dL
  TC: 68.4 mg/dL
  TG: 55.2 mg/dL
  TP: 5.2 g/dL
  gamma-GTP: 1.2 IU/L
10 mg/kg, 6 h, dose level Low
  TERMINAL_BW: 204.9 g
  APTT: 24.2 s
  Bas: 0%
  Eos: 1%
  Fbg: 286.8 mg/dL
  Ht: 41.2%
  Lym: 77.6%
  MCH: 20.6 pg
  MCHC: 32.2%
  MCV: 64 fL
  Mono: 2.8%
  Neu: 17.8%
  PT: 15.9 s
  Plat: 131 x10_4/uL
  RBC: 643.6 x10_4/ul
  Ret: 6.3%
  WBC: 115.8 x10_2/uL
  KIDNEY_L: 1 g
  KIDNEY_R: 1 g
  KIDNEY_TOTAL: 2 g
  LIVER: 9.1 g
  ALP: 1291.4 IU/L
  ALT: 43.4 IU/L
  BUN: 10 mg/dL
  CRE: 0.2 mg/dL
  DBIL: 0 mg/dL
  GLC: 180.6 mg/dL
  IP: 9.1 mg/dL
  K: 4.3 meq/L
  LDH: 174.2 IU/L
  PL: 134.6 mg/dL
  RALB: 3 g/dL
  TBIL: 0.016 mg/dL
  TC: 72.8 mg/dL
  TG: 76.2 mg/dL
  TP: 5.5 g/dL
  gamma-GTP: 1.6 IU/L
10 mg/kg, 9 h, dose level Low
  TERMINAL_BW: 197.5 g
  APTT: 25.3 s
  Bas: 0%
  Eos: 1%
  Fbg: 294.6 mg/dL
  Ht: 40.2%
  Lym: 73%
  MCHC: 32.6%
  Mono: 2.4%
  Neu: 23.4%
  PT: 15.7 s
  Plat: 131.4 x10_4/uL
  RBC: 644.2 x10_4/ul
  Ret: 5.7%
  WBC: 86.3 x10_2/uL
  KIDNEY_L: 0.9 g
  KIDNEY_R: 0.9 g
  KIDNEY_TOTAL: 1.8 g
  LIVER: 8 g
  ALP: 1344 IU/L
  ALT: 37.4 IU/L
  AST: 77 IU/L
  BUN: 11.2 mg/dL
  CRE: 0.2 mg/dL
  DBIL: 0 mg/dL
  GLC: 177.8 mg/dL
  IP: 9.3 mg/dL
  K: 4.4 meq/L
  LDH: 180.2 IU/L
  Na: 140 meq/L
  PL: 121 mg/dL
  RALB: 2.9 g/dL
  TBIL: 0.012 mg/dL
  TC: 71.8 mg/dL
  TG: 44.6 mg/dL
  TP: 5.3 g/dL
  gamma-GTP: 1.4 IU/L
10 mg/kg, 24 h, dose level Low
  TERMINAL_BW: 204.3 g
  APTT: 23.3 s
  Bas: 0%
  Eos: 0.6%
  Fbg: 298.2 mg/dL
  Ht: 40.6%
  Lym: 80.2%
  MCHC: 32.1%
  MCV: 63.8 fL
  Mono: 2.8%
  PT: 16.6 s
  Plat: 122.3 x10_4/uL
  RBC: 637.8 x10_4/ul
  Ret: 4.7%
  WBC: 78.9 x10_2/uL
  KIDNEY_L: 0.9 g
  KIDNEY_R: 1 g
  KIDNEY_TOTAL: 1.9 g
  LIVER: 9 g
  ALP: 1748.8 IU/L
  AST: 69.8 IU/L
  BUN: 15.6 mg/dL
  CRE: 0.2 mg/dL
  DBIL: 0 mg/dL
  GLC: 180.8 mg/dL
  IP: 7.2 mg/dL
  K: 4.5 meq/L
  LDH: 208.6 IU/L
  PL: 140.6 mg/dL
  RALB: 3.1 g/dL
  TBIL: 0.006 mg/dL
  TC: 74.2 mg/dL
  TG: 75.6 mg/dL
  TP: 5.5 g/dL
  gamma-GTP: 1.6 IU/L
30 mg/kg, 3 h, dose level Middle
  TERMINAL_BW: 205.5 g
